Data: article PMC7934941, “Pharmacological chaperone action in humanized mouse models of MC4R-linked obesity” (JCI Insight, 2021)

Tests used:
WT-hMC4R = molecular target: T1, WT-hMC4R (Homo sapiens, UniProt P32245); assay: Melanocortin agonist cAMP production, WT receptor; format: cell-based; settings: % of Emax of untreated WT-hMC4R upon 1 μM NDP-α-MSH
T1 construct: expressed in transfected cells
Procedure: (§1) Data are the means ± SEM of 3 independent experiments.
(§2) Cells were kept on ice for 5 minutes before proceeding to cAMP measurement. […] For all assays, plates were then put at –80°C at least 90 minutes and thawed at RT on Heidolph Titramax 100 shaker at speed 1050 rpm. Cell lysates were then transferred to 384-well plates, lysed, and incubated with cAMP labeled with the dye d2 and anti-cAMP M antibody labeled with Cryptate (cAMP dynamic-2 kit, cisbio) according to the manufacturer’s protocol. Reading of the homogeneous time-resolved fluorescence signal was performed on an Artemis time-resolved fluorescence resonance energy transfer plate reader (Cosmo Bio USA).

R165W-hMC4R = molecular target: T2, R165W-hMC4R (Homo sapiens, UniProt P32245, R165W); assay: Melanocortin agonist cAMP production, mutant receptor; format: cell-based
T2 construct: expressed in transfected cells
Procedure: as §1, §2

[1] = test system: hMC4R-KI, loxTB MC4R-null and nontransgenic mice; assay: Acute icv melanocortin agonist sensitivity, nocturnal food intake; format: in vivo, mouse; settings: homozygous loxTB MC4R-null mice
Procedure: (A–C) Immunohistochemical labeling of MC4R-positive neurons. […] Inset in A: higher power magnification of boxed areas containing GFP immune reactive neurons (brown cytoplasmic reaction product). Arrows in the center and right insets indicate GFP-positive neurons. Scale bars: 100 μm (A), 50 μm (A, inset), […] (B) and 10 μm (C). […] Food intake was measured 4 hours postadministration in dark phase and reported in percentage.
Food consumption was then assessed between ZT10 and ZT15 (3 hours after lights off). Food consumption was then normalized relative to the basal food consumption measured the day before for each mouse (% food intake vs. basal) and is expressed as means ± SEM.
The guide cannulas were secured with screws and cranioplastic cement (Dentsply Canada). To prevent clogging and to reduce the potential for brain infection, sterile obturators (PlasticsOne) were inserted into the guide cannulas. Appropriate cannula placement was functionally verified before experiments using the dipsogenic effects of angiotensin 2 injections (5 ng) as positive control, 5 days after surgery.
The day prior to agonist sensitivity assay, basal food consumption was measured individually between Zeitgeber time 10 (ZT10) (10 hours after lights on) and ZT15 (3 hours after lights off). […] Food consumption was then assessed between ZT10 and ZT15. […]

[2] = molecular target: human melanocortin type 4 receptor (WT) (human) (UniProt P32245); settings: scale: pEC50
[3] = molecular target: mouse melanocortin type 4 receptor (mouse) (UniProt P56450); settings: scale: pEC50
mouse melanocortin type 4 receptor (mouse), sequence (P56450 whole entry): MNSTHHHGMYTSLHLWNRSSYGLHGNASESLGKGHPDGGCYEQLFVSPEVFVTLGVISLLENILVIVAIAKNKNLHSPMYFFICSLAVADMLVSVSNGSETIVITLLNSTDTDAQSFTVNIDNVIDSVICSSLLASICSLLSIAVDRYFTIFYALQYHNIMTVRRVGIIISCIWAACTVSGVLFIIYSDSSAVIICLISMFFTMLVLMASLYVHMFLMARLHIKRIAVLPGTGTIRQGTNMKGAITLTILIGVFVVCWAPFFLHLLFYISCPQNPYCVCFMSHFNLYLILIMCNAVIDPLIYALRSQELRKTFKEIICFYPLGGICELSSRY

T1 sequence (P32245 whole entry): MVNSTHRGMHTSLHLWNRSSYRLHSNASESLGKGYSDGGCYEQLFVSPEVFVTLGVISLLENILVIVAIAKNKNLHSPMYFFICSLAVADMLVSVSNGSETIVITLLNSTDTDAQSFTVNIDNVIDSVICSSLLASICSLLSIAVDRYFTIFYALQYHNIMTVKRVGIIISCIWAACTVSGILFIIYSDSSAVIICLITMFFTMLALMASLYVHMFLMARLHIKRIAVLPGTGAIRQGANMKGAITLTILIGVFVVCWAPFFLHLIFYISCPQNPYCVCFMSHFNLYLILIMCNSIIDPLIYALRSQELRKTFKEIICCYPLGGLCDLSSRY
human melanocortin type 4 receptor (WT) (human), sequence (P32245 whole entry): as above
T2 sequence (P32245 whole entry R165W): as the sequence (P32245 whole entry) above, with R165W counted along it

Emax (WT-hMC4R; WT-hMC4R after 10 μM UM0130866 for 15 hours, washed) [%]	Emax (WT-hMC4R; WT-hMC4R, untreated) [%]	Emax (R165W-hMC4R) [%]	potency (pEC50) of α-MSH to activate Gs, BRET-based biosensor directly monitoring Gs activation [2]	potency (pEC50) of α-MSH to activate Gs, BRET-based biosensor directly monitoring Gs activation [3]	Compound	food intake response (ZT10-ZT15) [1]
92.7 ± 15.8	112 ± 2.55	115 ± 43.5			CSCC[C@H](NC(=O)[C@H](CCCNC(=N)N)NC(=O)[C@H](Cc1ccc(O)cc1)NC(=O)[C@@H]1CCCN1C(=O)CNC(=O)[C@H](CCC(=O)O)NC(=O)[C@H](CC(=O)O)NC(=O)[C@H](CCCCN)NC(=O)[C@H](CCCCN)NC(=O)[C@H](CCC(=O)O)NC(=O)[C@H](C)N)C(=O)N[C@@H](CCC(=O)O)C(=O)N[C@@H](Cc1c[nH]cn1)C(=O)N[C@@H](Cc1ccccc1)C(=O)N[C@@H](CCCNC(=N)N)C(=O)N[C@@H](Cc1c[nH]c2ccccc12)C(=O)NCC(=O)N[C@@H](CO)C(=O)N1CCC[C@H]1C(=O)N1CCC[C@H]1C(=O)N[C@@H](CCCCN)C(=O)N[C@@H](CC(=O)O)C(=O)O [β-MSH]	absence of anorexic response
			7.48	8.64	α–melanocyte-stimulating hormone (peptide)	
